Read-outs that look alike come from different tables or passages of the source.
Assays:
[1] = not given; remark: listed apart in the source
[2] = not given; remark: listed apart in the source
[3] = not given; remark: listed apart in the source

In the case of `COC(=O)C=C(C)OP(=O)(OC)OC` [phosdrin], the “potentiometric selectivity coefficient of MPA sensor to interferences” value is reported as 3.33 × 10^−4.
`O=C(O)C[C@@H](NC(=O)OCc1ccccc1)C(=O)O` [N-CBZ-D-Asp] showed a D-Asp sensor output ([1]; 0.20 mM) of 47 Mv, a D-Asp sensor output ([1]; 0.33 mM) of 55 Mv and a D-Asp sensor output ([1]; 0.50 mM) of 62 Mv. It also gave a D-Asp sensor output ([1]; 0.64 mM) of 68 Mv, a D-Asp sensor output ([1]; 0.79 mM) of 71 Mv and a D-Asp sensor output ([1]; 0.93 mM) of 76 Mv. The D-Asp sensor output ([1]; 1.49 mM) was 100 Mv, the D-Asp sensor output ([1]; 2.79 mM) was 158 Mv and the D-Asp sensor output ([1]; 4.09 mM) was 192 Mv. For the same compound, the D-Asp sensor output ([1]; 5.32 mM) was 203 Mv, the “potentiometric selectivity coefficient for L-isomer in the presence of D-isomer” value [2] was 9×10^−3 and the “potentiometric selectivity coefficient for N-CBZ-L-Asp with respect to N-CBZ-D-Asp” value ([2]; pH 6.8) was 0.08.
In the case of CaCO3, the “potentiometric selectivity coefficient of DPA sensor (j: interference)” value [3] is reported as 2.22.
In the case of `Cc1cc2nc3c(=O)[nH]c(=O)nc-3n(C[C@H](O)[C@H](O)[C@H](O)CO)c2cc1C` [riboflavin], the “potentiometric selectivity coefficient of DPA sensor (j: interference)” value [3] is reported as 7.78.
For NaCl, the “potentiometric selectivity coefficient of DPA sensor (j: interference)” value [3] was 20.
With `O=C(O)C[C@@H](O)C(=O)O` [D(+)-malic acid] the “potentiometric selectivity coefficient of DPA sensor (j: interference)” value [3] was 35.56.
With `O=P(O)(O)O` [H3PO4] the “potentiometric selectivity coefficient of MPA sensor to interferences” value was 7.5×10^−3.
In the case of `O=C(O)c1cccc(C(=O)O)n1` [DPA, pyridine-2,6-dicarboxylic acid], the “DPA adsorbed in the sensor concentrated versus control” value ([3]; pH 7.2) is reported as 23 times.
With K2HPO4 the “potentiometric selectivity coefficient of DPA sensor (j: interference)” value [3] was 4.44.
With KCl the “potentiometric selectivity coefficient of DPA sensor (j: interference)” value [3] was 44.4.
In the case of `N[C@@H](Cc1ccc(O)cc1)C(=O)O` [L-tyrosine], the “potentiometric selectivity coefficient of DPA sensor (j: interference)” value [3] is reported as 2.22 × 10^−3.
For `NC(Cc1c[nH]c2ccccc12)C(=O)O` (racemic) [DL-tryptophan], the “potentiometric selectivity coefficient of DPA sensor (j: interference)” value [3] was 2.22 × 10^−3.
In the case of `O=C(O)C[C@H](NC(=O)OCc1ccccc1)C(=O)O` [N-CBZ-L-Asp], the “potentiometric selectivity coefficient for D-isomer in the presence of L-isomer” value [1] is reported as 4×10^−3, the L-Asp sensor output ([2]; 0.095 mM) is reported as 37 mV and the L-Asp sensor output ([2]; 0.20 mM) is reported as 49 mV. The L-Asp sensor output ([2]; 0.33 mM) was 59 mV, the L-Asp sensor output ([2]; 0.50 mM) was 65 mV and the L-Asp sensor output ([2]; 0.64 mM) was 72 mV. It also gave a L-Asp sensor output ([2]; 0.79 mM) of 78 mV, a L-Asp sensor output ([2]; 0.93 mM) of 84 mV and a L-Asp sensor output ([2]; 1.49 mM) of 114 mV. The L-Asp sensor output ([2]; 2.79 mM) was 172 mV, the L-Asp sensor output ([2]; 4.09 mM) was 205 mV and the L-Asp sensor output ([2]; 5.32 mM) was 222 mV.

— patent US20040058380A1 (priority 2002, published 2004)
